According to the NIST ThermoML archive (doi:10.1021/je030226s):

Experiments:
[1] = xn = mol fraction of the nth substance listed; conditions: 101.32 kPa, Liquid
[2] = refractive index (Na D-line) (dimensionless); xn = mol fraction of the nth substance listed; conditions: 101.32 kPa, Liquid

CO [methanol] + CCCCCl
x1 = 1
Conditions	mass density, 288.15 K [kg/m3]	mass density, 298.15 K [kg/m3]	mass density, 308.15 K [kg/m3]	refractive index, 288.15 K	refractive index, 298.15 K	refractive index, 308.15 K	viscosity, 288.15 K [mPa·s]	viscosity, 298.15 K [mPa·s]	viscosity, 308.15 K [mPa·s]
[1]	796.1	786.6	777.2	–	–	–	0.627	0.543	0.473
[2]	–	–	–	1.3303	1.3275	1.3254	–	–	–

CCCCO [butan-1-ol] + CCCCCl
x1 = 1
Conditions	mass density, 288.15 K [kg/m3]	mass density, 298.15 K [kg/m3]	mass density, 308.15 K [kg/m3]	refractive index, 288.15 K	refractive index, 298.15 K	refractive index, 308.15 K	viscosity, 288.15 K [mPa·s]	viscosity, 298.15 K [mPa·s]	viscosity, 308.15 K [mPa·s]
[1]	813.5	805.9	798.2	–	–	–	3.394	2.598	2.019
[2]	–	–	–	1.401	1.3972	1.3932	–	–	–

CCCCCl [1-chlorobutane] + CCCCO
Conditions	mass density, 288.15 K [kg/m3]	mass density, 298.15 K [kg/m3]	mass density, 308.15 K [kg/m3]	refractive index, 288.15 K	refractive index, 298.15 K	refractive index, 308.15 K	viscosity, 288.15 K [mPa·s]	viscosity, 298.15 K [mPa·s]	viscosity, 308.15 K [mPa·s]
[1], x2 = 0	892.2	881	869.7	–	–	–	0.472	0.423	0.382
[1], x2 = 0.05	888	876.9	865.7	–	–	–	0.49	0.437	0.388
[1], x2 = 0.1	884.3	873.3	862.3	–	–	–	0.506	0.453	0.41
[1], x2 = 0.2	877	866.3	855.5	–	–	–	0.569	0.499	0.442
[1], x2 = 0.3	869.7	859.4	848.9	–	–	–	0.655	0.569	0.497
[1], x2 = 0.4	862.4	852.4	842.2	–	–	–	0.781	0.665	0.57
[1], x2 = 0.5	854.9	845.3	835.4	–	–	–	0.953	0.798	0.676
[1], x2 = 0.6	847.3	838	828.6	–	–	–	1.196	0.977	0.81
[1], x2 = 0.7	839.4	830.5	821.5	–	–	–	1.528	1.221	1
[1], x2 = 0.8	831.2	822.7	814.1	–	–	–	1.979	1.563	1.251
[1], x2 = 0.9	822.6	814.5	806.3	–	–	–	2.601	2.019	1.584
[1], x2 = 0.95	818.1	810.3	802.3	–	–	–	2.966	2.328	1.784
[2], x2 = 0	–	–	–	1.4045	1.3993	1.3941	–	–	–
[2], x2 = 0.05	–	–	–	1.4041	1.3989	1.3936	–	–	–
[2], x2 = 0.1	–	–	–	1.4039	1.3987	1.3934	–	–	–
[2], x2 = 0.2	–	–	–	1.4035	1.3984	1.3932	–	–	–
[2], x2 = 0.3	–	–	–	1.4031	1.3982	1.3931	–	–	–
[2], x2 = 0.4	–	–	–	1.4029	1.3981	1.3931	–	–	–
[2], x2 = 0.5	–	–	–	1.4027	1.398	1.3932	–	–	–
[2], x2 = 0.6	–	–	–	1.4024	1.3979	1.3932	–	–	–
[2], x2 = 0.7	–	–	–	1.4022	1.3978	1.3933	–	–	–
[2], x2 = 0.8	–	–	–	1.4019	1.3977	1.3933	–	–	–
[2], x2 = 0.9	–	–	–	1.4016	1.3975	1.3933	–	–	–
[2], x2 = 0.95	–	–	–	1.4013	1.3974	1.3933	–	–	–
